From patent US8729228B2, “Method of producing a modified (poly) peptide” (University of Geneva, priority 2005, dated 2014)
Residues, ends and D or L forms follow the SMILES beside them. *: point of attachment. OBn = c1ccc(CO*)cc1

How the values were obtained:
[1] = system: α-smooth muscle-actin (α-SMA); experiment: α-SMA stress fibre assay in α-SMA-EGFP transfected REF-52 cells (confocal microscopy); format: cell-based, Rat; conditions: for penetration into the cell, monitored by detection of the expected biological activity: extent measured by comparison with the biological activity of standards
Method: FIG. 15: (a) Constructs designed to deliver the Ac-EEED peptide into cells through a semi-permanent carboxy esterification strategy. (b) Rat embryonic fibroblasts (REF-52 cells) transfected with the α-SMA-EGFP construct (Clement et al., J Cell Sci. 118, 1395-1404 (2005)) were trypsinized, plated on coverslips for 1 days in DMEM/2% FCS and treated with SMA-Peptide [Ac-E(OBzl)-E(OBzl)-E(OBzl)-D(OBzl)-K(Ac)-CONH2] (5 μg/ml) for 45 min in DMEM without FCS (37 C, incubator). Cells were the rinsed in DMEM, fixed with 1% PFA, and mounted for confocal microscopy (LSM510, Carl Zeiss) observation. α-SMA-EGFP transfected cells were either untreated (control; left), or treated for 45 minutes with SMA-Peptide [Ac-E(OBzl)-E(OBzl)-E(OBzl)-D(OBzl)-K(Ac)-CONH2] (right).
This example relates to delivery of the peptide using a semi-permanent carboxy esterification strategy of a synthetic peptide incorporating a C-terminal lysine residue, whose carboxy terminus is amidated and whose epsilon amino group is either acetylated or used as a handle to attach a tracer (fluorochrome, biotin, etc, FIG. 15(a)). Four constructs have been tested, varying the lipophilicity of the protecting ester moiety.

[2] = target: α-smooth muscle-actin (α-SMA) (Homo sapiens, UniProt P62736); conditions: microinjection (Chaponnier et al. 1995) and fusion to a PTD (Hinz et al. 2002); cited from earlier work

Compound | α-SMA positive-stress fibers ([1]; REF-52 cells transfected with α-SMA-EGFP, 5 μg/ml for 45 min in DMEM without FCS, 37 C) | penetration into the cell, monitored by detection of the expected biological activity ([1]; listed as template) | penetration into the cell, monitored by detection of the expected biological activity ([1]; listed as template with the carboxylates esterified with benzyl groups) | blocking polymerisation of α-smooth muscle-actin (α-SMA) [2]
CC(=O)NCCCC[C@H](NC(=O)[C@H](CC(=O)OCc1ccccc1)NC(=O)[C@H](CCC(=O)OCc1ccccc1)NC(=O)[C@H](CCC(=O)OCc1ccccc1)NC(=O)[C@H](CCC(=O)OCc1ccccc1)NC(C)=O)C(N)=O [SMA-Peptide, Ac-E(OBzl)-E(OBzl)-E(OBzl)-D(OBzl)-K(Ac)-CONH2] (Ac-E(OBn)E(OBn)E(OBn)D(OBn)K(Ac)-NH2) | provokes α-SMA positive-stress fiber disappearance | incomplete | showed penetration into the cell | –
Ac-EEED | – | – | – | capable of blocking polymerisation of α-smooth muscle-actin (α-SMA)
